From patent publication US20230250066A1, “HERBICIDAL CINNOLINE DERIVATIVES” (SYNGENTA CROP PROTECTION AG, priority 2020, published 2023)

Columns and labels:
Type in all cases: in vivo
Solanum nigrum (SOLNI) [1] = experiment: Pre-emergence herbicidal test; details: 1000 g/ha, evaluated after 13 days
Lolium perenne (LOLPE) [2] = experiment: Pre-emergence herbicidal test; details: 1000 g/ha, evaluated after 13 days
[3] = tested on: Amaranthus retoflexus (AMARE); experiment: Pre-emergence herbicidal test; details: 1000 g/ha, evaluated after 13 days
Lolium perenne (LOLPE) [4] = experiment: Post-emergence herbicidal test; details: 1000 g/ha unless otherwise stated, evaluated after 13 days
Method in brief: (§1)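 Spray treatment, 1000 g/ha unless noted; vehicle acetone/water (50:50), 0.5% Tween 20. Glasshouse 24/16° C., 14 h light, 65% humidity. Percent injury rated at 13 d, banded 0–5.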

[5] = tested on: Amaranthus retoflexus (AMARE); experiment: Post-emergence herbicidal test; details: 1000 g/ha unless otherwise stated, evaluated after 13 days
Method in brief: as §1

Solanum nigrum (SOLNI) [6] = experiment: Post-emergence herbicidal test; details: 1000 g/ha unless otherwise stated, evaluated after 13 days
Method in brief: as §1

[7] = tested on: Ipomoea hederacea (IPOHE); experiment: Post-emergence herbicidal test; details: 1000 g/ha unless otherwise stated, evaluated after 13 days
Method in brief: as §1

Setaria faberi (SETFA) [8] = experiment: Post-emergence herbicidal test; details: 1000 g/ha unless otherwise stated, evaluated after 13 days
Method in brief: as §1

[9] = tested on: Echinochloa crus-galli (ECHCG); experiment: Post-emergence herbicidal test; details: 1000 g/ha unless otherwise stated, evaluated after 13 days
Method in brief: as §1

[10] = tested on: Ipomoea hederacea (IPOHE); experiment: Pre-emergence herbicidal test; details: 1000 g/ha, evaluated after 13 days
[11] = tested on: Echinochloa crus-galli (ECHCG); experiment: Pre-emergence herbicidal test; details: 1000 g/ha, evaluated after 13 days
Setaria faberi (SETFA) [12] = experiment: Pre-emergence herbicidal test; details: 1000 g/ha, evaluated after 13 days
[13] = tested on: Abutilon theophrasti (ABUTH); experiment: Pre-emergence herbicidal test; details: 1000 g/ha, evaluated after 13 days
Zea mays (ZEAMX) [14] = experiment: Pre-emergence herbicidal test; details: 1000 g/ha, evaluated after 13 days
Zea mays (ZEAMX) [15] = experiment: Post-emergence herbicidal test; details: 1000 g/ha unless otherwise stated, evaluated after 13 days
Method in brief: as §1

[16] = tested on: Abutilon theophrasti (ABUTH); experiment: Post-emergence herbicidal test; details: 1000 g/ha unless otherwise stated, evaluated after 13 days
Method in brief: as §1

Structure (SMILES)	percentage damage caused to the plant, five-point scale, SOLNI (Solanum nigrum (SOLNI) [1])	percentage damage caused to the plant, five-point scale, LOLPE (Lolium perenne (LOLPE) [2])	percentage damage caused to the plant, five-point scale, AMARE [3]	percentage damage caused to the plant, LOLPE (five-point scale) (Lolium perenne (LOLPE) [4])	percentage damage caused to the plant, AMARE (five-point scale) [5]	percentage damage caused to the plant, SOLNI (five-point scale) (Solanum nigrum (SOLNI) [6])	percentage damage caused to the plant, IPOHE (five-point scale) [7]	percentage damage caused to the plant, SETFA (five-point scale) (Setaria faberi (SETFA) [8])	percentage damage caused to the plant, ECHCG (five-point scale) [9]	percentage damage caused to the plant, five-point scale, IPOHE [10]	percentage damage caused to the plant, five-point scale, ECHCG [11]	percentage damage caused to the plant, five-point scale, SETFA (Setaria faberi (SETFA) [12])	percentage damage caused to the plant, five-point scale, ABUTH [13]	percentage damage caused to the plant, five-point scale, ZEAMX (Zea mays (ZEAMX) [14])	percentage damage caused to the plant, ZEAMX (five-point scale) (Zea mays (ZEAMX) [15])	percentage damage caused to the plant, ABUTH (five-point scale) [16]
CS(=O)(=O)c1cccc2c1c(=O)c(C(=O)O)nn2-c1ccc(OC(F)(F)F)cc1 [Compound P2, 5-methylsulfonyl-4-oxo-1-[4-(trifluoromethoxy)phenyl]cinnoline-3-carboxylic acid]	4 (4=61-80%)	5 (5=81-100%)	1 (1=10-20%)	4 (4=61-80%)	1 (1=10-20%)	4 (4=61-80%)	2 (2=21-40%)	4 (4=61-80%)	4 (4=61-80%)	1 (1=10-20%)	5 (5=81-100%)	5 (5=81-100%)				
CSc1cccc2c1c(=O)c(C(=O)O)nn2-c1ccc(OC(F)(F)F)cc1 [Compound P1, 5-methylsulfanyl-4-oxo-1-[4-(trifluoromethoxy)phenyl]cinnoline-3-carboxylic acid]	0 (0=0%)	0 (0=0%)	0 (0=0%)	0 (0=0%)	0 (0=0%)	0 (0=0%)	0 (0=0%)	0 (0=0%)	0 (0=0%)	0 (0=0%)	0 (0=0%)	0 (0=0%)				
CS(=O)(=O)c1cccc2c1c(=O)c(C(=O)O)nn2-c1ccc(Cl)cc1 [Compound P5, 1-(4-chlorophenyl)-5-methylsulfonyl-4-oxo-cinnoline-3-carboxylic acid]	1 (1=10-20%)	4 (4=61-80%)	1 (1=10-20%)	4 (4=61-80%)	1 (1=10-20%)	4 (4=61-80%)	1 (1=10-20%)	4 (4=61-80%)	4 (4=61-80%)	1 (1=10-20%)	4 (4=61-80%)	4 (4=61-80%)				
CSc1cccc2c1c(=O)c(C(=O)O)nn2-c1ccc(Cl)cc1 [Compound P4, 1-(4-chlorophenyl)-5-methylsulfanyl-4-oxo-cinnoline-3-carboxylic acid]	0 (0=0%)	0 (0=0%)	0 (0=0%)	0 (0=0%)	0 (0=0%)	0 (0=0%)	0 (0=0%)	0 (0=0%)	0 (0=0%)	0 (0=0%)	0 (0=0%)	0 (0=0%)				
C#CCOC(=O)c1nn(-c2ccc(OC(F)(F)F)cc2)c2cccc(S(C)(=O)=O)c2c1=O [Compound P79, prop-2-ynyl 5-methylsulfonyl-4-oxo-1-[4-(trifluoromethoxy)phenyl]cinnoline-3-carboxylate]			0 (0=0%)		0 (0=0%)		1 (1=10-20%)	4 (4=61-80%)	4 (4=61-80%)	1 (1=10-20%)	5 (5=81-100%)	5 (5=81-100%)	0 (0=0%)	1 (1=10-20%)	1 (1=10-20%)	1 (1=10-20%)
C#CCCCOC(=O)c1nn(-c2ccc(OC(F)(F)F)cc2)c2cccc(S(C)(=O)=O)c2c1=O [Compound P62, pent-4-ynyl 5-methylsulfonyl-4-oxo-1-[4-(trifluoromethoxy)phenyl]cinnoline-3-carboxylate]			0 (0=0%)		0 (0=0%)		0 (0=0%)	4 (4=61-80%)	3 (3=41-60%)	0 (0=0%)	4 (4=61-80%)	5 (5=81-100%)	0 (0=0%)	0 (0=0%)	1 (1=10-20%)	0 (0=0%)
CCOC(=O)c1nn(-c2ccc(OC(F)(F)F)cc2)c2ccc(OC)c(S(C)(=O)=O)c2c1=O [Compound P49, ethyl 6-methoxy-5-methylsulfonyl-4-oxo-1-[4-(trifluoromethoxy)phenyl]cinnoline-3-carboxylate]			0 (0=0%)		0 (0=0%)		1 (1=10-20%)	1 (1=10-20%)	1 (1=10-20%)	0 (0=0%)	0 (0=0%)	0 (0=0%)	0 (0=0%)	0 (0=0%)	0 (0=0%)	0 (0=0%)
CCOC(=O)c1nn(-c2ccc(OC(F)(F)F)cc2)c2cc(CC(C)C)cc(S(C)(=O)=O)c2c1=O [Compound P46, ethyl 7-isobutyl-5-methysulfonyl-4-oxo-1-[4-(trifluoromethoxy)phenyl]cinnoline-3-carboxylate]			0 (0=0%)		0 (0=0%)		1 (1=10-20%)	1 (1=10-20%)	1 (1=10-20%)	0 (0=0%)	0 (0=0%)	0 (0=0%)	1 (1=10-20%)	2 (2=21-40%)	1 (1=10-20%)	1 (1=10-20%)
CCOC(=O)c1nn(-c2ccc(OC(F)(F)F)cc2)c2cc(C#N)cc(S(C)(=O)=O)c2c1=O [Compound P48, ethyl 7-cyano-5-methylsulfonyl-4-oxo-1-[4-(trifluoromethoxy)phenyl]cinnoline-3-carboxylate]			0 (0=0%)		0 (0=0%)		0 (0=0%)	0 (0=0%)	0 (0=0%)	0 (0=0%)	0 (0=0%)	0 (0=0%)	0 (0=0%)	0 (0=0%)	0 (0=0%)	0 (0=0%)
